Measured values taken from patent publication US7807400B2, “Methods for identifying chemical modulators of Ras superfamily GTPase activity” (The University of North Carolina at Chapel Hill, priority 2004, dated 2010).
Entries after “also recorded” stand apart in the source; their conditions may differ. Blank lines part the entries; values can stand above or below the molecule they belong to.

Columns and labels:
Format in all cases: biochemical
[1] = target: Dbs-mediated activation of RhoA (Homo sapiens, UniProt P61586); test: fluorescence guanine nucleotide exchange reaction, Dbs-mediated activation of RhoA; details: fluorescence after addition of GEF, versus DMSO vehicle control
Sequence of Dbs-mediated activation of RhoA (P61586 whole entry): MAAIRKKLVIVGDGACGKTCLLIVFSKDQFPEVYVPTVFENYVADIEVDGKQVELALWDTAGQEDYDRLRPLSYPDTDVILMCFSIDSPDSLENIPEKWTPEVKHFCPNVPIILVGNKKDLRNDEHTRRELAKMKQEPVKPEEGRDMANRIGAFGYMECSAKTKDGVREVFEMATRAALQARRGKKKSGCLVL

Rac1 = Rac1 (Homo sapiens, UniProt P63000); test: complementary radiolabeled nucleotide exchange assay on Rac1
Cdc42 = Cdc42 (Homo sapiens, UniProt P60953); test: complementary radiolabeled nucleotide exchange assay on Cdc42
Sequence of Cdc42 (P60953 whole entry, species assumed): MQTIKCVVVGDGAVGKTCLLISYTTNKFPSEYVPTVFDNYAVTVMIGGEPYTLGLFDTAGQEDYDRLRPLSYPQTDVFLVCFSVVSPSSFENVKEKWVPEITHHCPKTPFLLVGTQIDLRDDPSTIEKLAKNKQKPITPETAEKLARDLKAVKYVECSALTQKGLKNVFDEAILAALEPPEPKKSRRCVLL

H-Ras = H-Ras (Homo sapiens, UniProt P01112); test: complementary radiolabeled nucleotide exchange assay on H-Ras
Sequence of H-Ras (P01112 whole entry, species assumed): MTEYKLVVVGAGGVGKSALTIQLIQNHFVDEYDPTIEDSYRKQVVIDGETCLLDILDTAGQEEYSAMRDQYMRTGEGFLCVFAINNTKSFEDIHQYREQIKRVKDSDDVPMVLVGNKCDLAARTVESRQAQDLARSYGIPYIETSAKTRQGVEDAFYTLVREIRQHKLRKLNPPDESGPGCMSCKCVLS

[2] = system: Tiam1-mediated activation of Rac1; test: fluorescence based guanine nucleotide exchange assay, Tiam1-mediated activation of Rac1
RhoA = RhoA (Homo sapiens, UniProt P61586); test: complementary radiolabeled nucleotide exchange assay on RhoA
Sequence of RhoA (P61586 whole entry, species assumed): as the sequence (P61586 whole entry) above

Rap2A = target: T1, Rap2A (Homo sapiens, UniProt P10114); test: intrinsic guanine nucleotide exchange of Gpp(NH)p-preloaded Rap2A with mant-GTP (FRET); details: 1 μM RGS14 RBD protein, 100 nM Rap2A, 1 μM mant-GTP, 37° C., compared to Rap2A alone, p<0.05
T1 sequence (P10114 1-183): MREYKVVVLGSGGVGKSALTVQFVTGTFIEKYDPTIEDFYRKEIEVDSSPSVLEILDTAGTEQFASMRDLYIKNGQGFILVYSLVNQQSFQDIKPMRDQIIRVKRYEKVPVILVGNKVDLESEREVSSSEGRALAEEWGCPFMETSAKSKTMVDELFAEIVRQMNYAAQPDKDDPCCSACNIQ
Method: The intrinsic guanine nucleotide exchange rate of Gpp(NH)p-preloaded Rap2A (100 nM) was monitored with mant-GTP in the absence (solid) or presence (dashed) of the RBD tandem repeat (aa 300-447) from the putative Rap2A effector rat RGS14 (1 μM). In this example, 1 mL cuvettes were loaded with 1 μM mant-GTP (in 50 mM Tris pH 7.5, 5 mM MgCl2, 1 mM EDTA at 37° C.) and allowed to equilibrate prior to the addition of 100 nM Rap2A (preloaded with Gpp(NH)p) in the presence or absence of 1 μM of the RGS14 RBD protein. The dissociation of Gpp(NH)p was then measured by excitation of the tryptophan residue. The FRET-mediated excitation of bound mant-GTP was also measured. Binding of the RGS14 RBD repeat region to activated Rap2A prevents the loss of guanine nucleotide from the G-protein, thereby effectively acting as a guanine nucleotide dissociation inhibitor (GDI). Further, the incubation of Rap2A with the RGS14 tandem RBD repeat region slowed the rate of spontaneous nucleotide exchange by about 30% (p<0.05) when compared to that of Rap2A alone. Curves were fit as single exponential functions using GraphPad Prism™ (GraphPad Software, Inc.). […]

effect on Dbs-mediated RhoA activation / guanine nucleotide exchange [1]: inhibit guanine nucleotide exchange
Molecule: Nc1nc2c(ncn2[C@@H]2O[C@H](COP(=O)(O)OP(=O)(O)O)[C@@H](O)[C@H]2O)c(=O)[nH]1 [GDP]

Molecule: O=C(O)C=Cc1ccc[c]([SbH]([O-])([OH])[OH])c1 [NSC#13778, 3-(3-(dihydroxy(oxido)stibino)phenyl)acrylic acid]
activity in complementary radiolabeled assay (Rac1) (Rac1): confirmed
enhancement of nucleotide exchange on Cdc42 (Cdc42): does not enhance nucleotide exchange
enhancement of nucleotide exchange on H-Ras (H-Ras): does not enhance nucleotide exchange
effect on GEF-mediated nucleotide exchange on Rac1 ([2]; NCI Diversity Set screen, 96-well kinetic format, secondary studies in 1 mL total volume): accelerated kinetics; also recorded: enhancing Tiam1-mediated Rac1 activation in a dose-dependent manner; also recorded: accelerates GEF-mediated nucleotide exchange on Rac1 in a dose-dependent manner
EC50 ([2]; acceleration of GEF-mediated nucleotide exchange on Rac1): ~4 µM
enhancement of nucleotide exchange on RhoA (RhoA): does not enhance nucleotide exchange

slowing of the rate of spontaneous nucleotide exchange of Rap2A (Rap2A): about 30%
B1: RGS14 tandem RBD repeat region: RBD tandem repeat (aa 300-447) from the putative Rap2A effector rat RGS14 (protein, UniProt O08773 300-447, looked up, fragment)
chain: KYCCVYLPDGTASLALARPGLTIRDMLAGICEKRGLSLPDIKVYLVGKEQKALVLDQDCTVLADQEVRLENRITFQLELVGLERVVRISAKPTKRLQEALQPILAKHGLSLDQVVLHRPGEKQLVDLENLVSSVASQTLVLDTLPDAK
